Assay: recombinant UMI read abundance after kanamycin selection (control-corrected) (log10(CPM+1)); higher = more efficient recombination; extreme values may be limits of the assay; sequences stand for … in AGTGCAGAGAAAATCGGCCAGTTTTCTCTGCCTGCAGTCCGCATGCCGTGGGACCCCTTGGGTTCTAACCTGTTGCCTAGATTTATGCAGCGGACTGCCTTTCTCCCAAAGTGATAAACCGG…AGGTTGGTTTCACT; site = the 11-nt donor
Summary of the method: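 Sequencing read counts were converted to CPM, averaged over two replicates and scaled by control-derived factors. Results are given as log10(CPM+1). The reads covered the donor–target junction of recombinant UMIs from a pooled Escherichia coli screen of donor and donor-binding-loop pairs for the IS621 bridge recombinase.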
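Note: IS621 bridge recombinase in Escherichia coli cells against a fixed T5 target plasmid.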

| Sequence | recombinant UMI read abundance (log10) |
| --- | --- |
| AGGTTCGCATGGACCGGTTTTCCCGGTAATCCGTATTTGTG (site AGGTTCTCTCA) | 0 |
| AGGTTGACATGGACCGGTTTTCCCGGTAATCCGTATTTGCG (site AGGTTGACTCG) | 2 |
| AGTAAATCATGGACCGGTTTTCCCGGTAATCCGTATTTGGG (site GCCGTTCCTGA) | 0 |
| AGTAACACATGGACCGGTTTTCCCGGTAATCCGTATTTGCA (site AGGAAGACTTG) | 0 |
| AGTAACACATGGACCGGTTTTCCCGGTAATCCGTATTTGCA (site AGTAACACTTG) | 2.13 |
| AGTAACGCATGGACCGGTTTTCCCGGTAATCCGTATTTGCA (site AGTAACGCTTG) | 2.29 |
| AGTACCACATGGACCGGTTTTCCCGGTAATCCGTATTTGTT (site AGTACCACTAA) | 0.274 |
| AGTACGTCATGGACCGGTTTTCCCGGTAATCCGTATTTGTT (site AGTACGTCTAA) | 0.258 |
| AGTACGTCATGGACCGGTTTTCCCGGTAATCCGTATTTGTT (site CGTACGTCTAA) | 0.552 |
| AGTACGTCATGGACCGGTTTTCCCGGTAATCCGTATTTGTT (site GGTACGTCTAA) | 0.198 |
| AGTACGTCATGGACCGGTTTTCCCGGTAATCCGTATTTGTT (site TGTACGTCTAA) | 0.212 |
| AGTCCCACATGGACCGGTTTTCCCGGTAATCCGTATTTGAA (site AGTCCCACTTT) | 0.752 |
| AGTCCGCCATGGACCGGTTTTCCCGGTAATCCGTATTTGGG (site AGTCCGCCTCC) | 0.015 |
| AGTCGAGCATGGACCGGTTTTCCCGGTAATCCGTATTTGAG (site AGTCGAGCTCT) | 1.6 |
| AGTCTTACATGGACCGGTTTTCCCGGTAATCCGTATTTGCG (site AGTCTTACTCG) | 1.32 |
| AGTGAATCATGGACCGGTTTTCCCGGTAATCCGTATTTGAG (site AGTGAATCTCT) | 2.17 |
| AGTGCTGCATGGACCGGTTTTCCCGGTAATCCGTATTTGCA (site AGTGCTGCTTG) | 1.21 |
| AGTGGAACATGGACCGGTTTTCCCGGTAATCCGTATTTGTT (site AGTGGAACTAA) | 1.56 |
| AGTGGAACATGGACCGGTTTTCCCGGTAATCCGTATTTGTT (site CGTGGAACTAA) | 0.295 |
| AGTGGAACATGGACCGGTTTTCCCGGTAATCCGTATTTGTT (site GGTGGAACTAA) | 0.00617 |
| AGTGGAACATGGACCGGTTTTCCCGGTAATCCGTATTTGTT (site TGTGGAACTAA) | 0.00958 |
| AGTGGGTCATGGACCGGTTTTCCCGGTAATCCGTATTTGCA (site AGTGGGTCTTG) | 2.92 |
| AGTGTATCATGGACCGGTTTTCCCGGTAATCCGTATTTGCA (site ACAGTATCTTG) | 1.69 |

| Sequence | recombinant UMI read abundance (log10) |
| --- | --- |
| AGTGTATCATGGACCGGTTTTCCCGGTAATCCGTATTTGCA (site AGTGTATCTTG) | 2.25 |
| AGTGTCACATGGACCGGTTTTCCCGGTAATCCGTATTTGGC (site AGTGTCACTGC) | 2.62 |
| AGTGTCTCATGGACCGGTTTTCCCGGTAATCCGTATTTGCA (site AGTGTCTCTTG) | 3.07 |
| AGTTAGACATGGACCGGTTTTCCCGGTAATCCGTATTTGAG (site AGTTAGACTCT) | 1.23 |
| AGTTAGACATGGACCGGTTTTCCCGGTAATCCGTATTTGAG (site CGTTAGACTCT) | 1.06 |
| AGTTAGACATGGACCGGTTTTCCCGGTAATCCGTATTTGAG (site GGTTAGACTCT) | 0.353 |
| AGTTAGACATGGACCGGTTTTCCCGGTAATCCGTATTTGAG (site TGTTAGACTCT) | 0.674 |
| AGTTATTCATGGACCGGTTTTCCCGGTAATCCGTATTTGCA (site AGTTATTCTTG) | 2.11 |
| AGTTCAGCATGGACCGGTTTTCCCGGTAATCCGTATTTGGG (site AGATCAGCTCC) | 0.0116 |
| AGTTCAGCATGGACCGGTTTTCCCGGTAATCCGTATTTGGG (site AGCTCAGCTCC) | 0.0322 |
| AGTTCAGCATGGACCGGTTTTCCCGGTAATCCGTATTTGGG (site AGGTCAGCTCC) | 0.0161 |
| AGTTCAGCATGGACCGGTTTTCCCGGTAATCCGTATTTGGG (site AGTTCAGCTCC) | 0.017 |
| AGTTCTGCATGGACCGGTTTTCCCGGTAATCCGTATTTGTT (site AGTTCTGCTAA) | 0.0478 |
| AGTTGATCATGGACCGGTTTTCCCGGTAATCCGTATTTGTC (site AGTTGATCTGA) | 1.94 |
| ATAAAATCATGGACCGGTTTTCCCGGTAATCCGTATTTGCC (site ATAAAATCTGG) | 1.66 |
| ATAAAGCCATGGACCGGTTTTCCCGGTAATCCGTATTTGAC (site ATAAAGCCTGT) | 0 |
| ATAAAGCCATGGACCGGTTTTCCCGGTAATCCGTATTTGAC (site ATAACGCCTGT) | 0 |
| ATAAAGCCATGGACCGGTTTTCCCGGTAATCCGTATTTGAC (site ATAAGGCCTGT) | 0 |
| ATAAAGCCATGGACCGGTTTTCCCGGTAATCCGTATTTGAC (site ATAATGCCTGT) | 0 |
| ATAACAACATGGACCGGTTTTCCCGGTAATCCGTATTTGAA (site ATAACAACTTT) | 1.46 |
| ATAACAGCATGGACCGGTTTTCCCGGTAATCCGTATTTGTT (site ATAACAGCTAA) | 1.92 |
| ATAACGCCATGGACCGGTTTTCCCGGTAATCCGTATTTGAC (site ATAAAGCCTGT) | 0 |
| ATAACGCCATGGACCGGTTTTCCCGGTAATCCGTATTTGAC (site ATAACGCCTGT) | 0.696 |

| Sequence | recombinant UMI read abundance (log10) |
| --- | --- |
| ATAACGCCATGGACCGGTTTTCCCGGTAATCCGTATTTGAC (site ATAAGGCCTGT) | 0 |
| ATAACGCCATGGACCGGTTTTCCCGGTAATCCGTATTTGAC (site ATAATGCCTGT) | 0 |
| ATAAGACCATGGACCGGTTTTCCCGGTAATCCGTATTTGAC (site ATAAGACCTGT) | 0 |
| ATAAGACCATGGACCGGTTTTCCCGGTAATCCGTATTTGAC (site ATAAGCCCTGT) | 0 |
| ATAAGACCATGGACCGGTTTTCCCGGTAATCCGTATTTGAC (site ATAAGGCCTGT) | 0 |
| ATAAGACCATGGACCGGTTTTCCCGGTAATCCGTATTTGAC (site ATAAGTCCTGT) | 0 |
| ATAAGGCCATGGACCGGTTTTCCCGGTAATCCGTATTTGAC (site AAAAGGCCTGT) | 0 |
| ATAAGGCCATGGACCGGTTTTCCCGGTAATCCGTATTTGAC (site ACAAGGCCTGT) | 0 |
| ATAAGGCCATGGACCGGTTTTCCCGGTAATCCGTATTTGAC (site AGAAGGCCTGT) | 0 |
| ATAAGGCCATGGACCGGTTTTCCCGGTAATCCGTATTTGAC (site ATAAAGCCTGT) | 0 |
| ATAAGGCCATGGACCGGTTTTCCCGGTAATCCGTATTTGAC (site ATAACGCCTGT) | 0.0185 |
| ATAAGGCCATGGACCGGTTTTCCCGGTAATCCGTATTTGAC (site ATAAGACCTGT) | 0 |
| ATAAGGCCATGGACCGGTTTTCCCGGTAATCCGTATTTGAC (site ATAAGCCCTGT) | 0 |
| ATAAGGCCATGGACCGGTTTTCCCGGTAATCCGTATTTGAC (site ATAAGGACTGT) | 0.956 |
| ATAAGGCCATGGACCGGTTTTCCCGGTAATCCGTATTTGAC (site ATAAGGCCTAT) | 0.214 |
| ATAAGGCCATGGACCGGTTTTCCCGGTAATCCGTATTTGAC (site ATAAGGCCTCT) | 0.0671 |
| ATAAGGCCATGGACCGGTTTTCCCGGTAATCCGTATTTGAC (site ATAAGGCCTGA) | 0 |
| ATAAGGCCATGGACCGGTTTTCCCGGTAATCCGTATTTGAC (site ATAAGGCCTGC) | 0.147 |
| ATAAGGCCATGGACCGGTTTTCCCGGTAATCCGTATTTGAC (site ATAAGGCCTGG) | 0 |
| ATAAGGCCATGGACCGGTTTTCCCGGTAATCCGTATTTGAC (site ATAAGGCCTGT) | 0 |
| ATAAGGCCATGGACCGGTTTTCCCGGTAATCCGTATTTGAC (site ATAAGGCCTTT) | 0.131 |
| ATAAGGCCATGGACCGGTTTTCCCGGTAATCCGTATTTGAC (site ATAAGGGCTGT) | 0 |

From the supplement of paper PMC11208160
